pIC50: −log10 of the molar value. Structures can show the parent of a compound that is named as a salt. Where two headings read alike, the source gives them in different places.
Columns and labels:
recombinant human GOT = biological target: T1, recombinant human GOT (Homo sapiens, UniProt P17174); assay: GOT activity assay (inhibition of glutamate formation), photometric kit; format: biochemical; conditions: for Maximum of inhibition of glutamate formation in confirmatory assay (%): confirmatory dose-response assay; for IC50: inhibition of glutamate formation, confirmatory assay, read-out: IC50(μM) in confirmatory assay; for pIC50: dose-response curve, FIG. 1, read-out: IC50 (GOT)
T1 construct: purchased Abcam ab99147
T1 sequence (P17174 whole entry): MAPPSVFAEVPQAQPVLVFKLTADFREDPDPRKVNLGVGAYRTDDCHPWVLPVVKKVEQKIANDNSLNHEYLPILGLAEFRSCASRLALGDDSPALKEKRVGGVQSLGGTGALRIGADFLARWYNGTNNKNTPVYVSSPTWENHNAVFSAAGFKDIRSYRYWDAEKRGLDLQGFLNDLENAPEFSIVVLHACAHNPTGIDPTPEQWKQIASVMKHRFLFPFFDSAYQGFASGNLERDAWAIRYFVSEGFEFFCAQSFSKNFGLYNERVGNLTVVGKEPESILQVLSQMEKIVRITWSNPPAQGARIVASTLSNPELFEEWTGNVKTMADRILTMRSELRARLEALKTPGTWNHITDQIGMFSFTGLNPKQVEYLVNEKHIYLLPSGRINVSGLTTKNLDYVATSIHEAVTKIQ

[1] = biological target: T2, succinate dehydrogenase (SDH) (Homo sapiens, UniProt P31040); assay: Complex II Enzyme Activity Microplate Assay (SDH inhibition); format: biochemical; conditions: dose-response curve, FIG. 1; enzyme extracted from HepG2 cells
T2 construct: endogenous in cells; host or cells: HepG2 (ATCC HB-8065); complex captured with Abcam Complex II Enzyme Activity Microplate Assay ab109908
T2 sequence (P31040 43-664): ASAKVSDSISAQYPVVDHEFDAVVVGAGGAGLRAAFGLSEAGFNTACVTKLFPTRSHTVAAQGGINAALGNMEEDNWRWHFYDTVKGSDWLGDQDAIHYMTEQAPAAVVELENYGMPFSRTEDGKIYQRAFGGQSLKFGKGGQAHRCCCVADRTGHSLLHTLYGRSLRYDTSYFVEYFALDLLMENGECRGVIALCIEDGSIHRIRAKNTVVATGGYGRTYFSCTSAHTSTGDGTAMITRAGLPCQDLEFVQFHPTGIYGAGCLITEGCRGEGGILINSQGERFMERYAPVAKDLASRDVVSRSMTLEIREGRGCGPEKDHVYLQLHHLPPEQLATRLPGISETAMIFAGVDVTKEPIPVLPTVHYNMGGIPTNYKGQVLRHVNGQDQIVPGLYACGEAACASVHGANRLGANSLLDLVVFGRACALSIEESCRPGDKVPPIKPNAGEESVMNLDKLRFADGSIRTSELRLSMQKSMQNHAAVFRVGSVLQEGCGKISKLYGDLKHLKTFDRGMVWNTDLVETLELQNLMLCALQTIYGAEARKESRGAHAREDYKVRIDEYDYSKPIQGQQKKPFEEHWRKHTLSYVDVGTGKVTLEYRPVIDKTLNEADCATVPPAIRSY
T2 sequence (P21912 29-280 partner): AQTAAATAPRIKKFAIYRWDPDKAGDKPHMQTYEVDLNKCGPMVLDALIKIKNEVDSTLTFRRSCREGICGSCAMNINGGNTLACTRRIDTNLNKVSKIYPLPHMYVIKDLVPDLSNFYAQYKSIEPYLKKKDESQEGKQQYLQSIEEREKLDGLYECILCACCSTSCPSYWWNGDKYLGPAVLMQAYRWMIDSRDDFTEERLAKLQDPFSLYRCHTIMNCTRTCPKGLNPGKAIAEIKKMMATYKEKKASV
T2 sequence (Q99643 30-169 partner): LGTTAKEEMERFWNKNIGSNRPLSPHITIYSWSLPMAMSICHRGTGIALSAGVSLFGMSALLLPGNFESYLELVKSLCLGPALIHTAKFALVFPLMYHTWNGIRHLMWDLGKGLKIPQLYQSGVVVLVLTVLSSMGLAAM
T2 sequence (O14521 57-159 partner): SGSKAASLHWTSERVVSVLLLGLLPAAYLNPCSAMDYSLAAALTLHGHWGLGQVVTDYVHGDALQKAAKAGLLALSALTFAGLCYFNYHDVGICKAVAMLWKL
Excerpt: To evaluate possible toxic effects on SDH, a secondary assay was set up, using Complex II Enzyme Activity Microplate Assay (from Abcam, ref. ab109908), based on the detection of 2,6-diclorophenolindophenol (DCPID), blue, which is reduced in contact with Ubiquinol, turning colorless and involving the measurement of a decrease in absorbance at 595 nm. The enzyme was extracted from HepG2 cells (ATCC, ref. HB-8065), following manufacturer's instructions.

blood glutamate [2] = assay: Blood glutamate lowering in healthy animals; format: in vivo, rat; conditions: healthy rats; for percentage of blood glutamate lowering (respect to basal levels): riboflavin 1, 10 and 50 mg/Kg i.v.
Description: Experimental protocols were approved by the local Animal Care Committee according to the European Union (EU) rules (86/609/CEE, 2003/65/CE and 2010/63/EU). Male Sprague-Dawley rats (Harlan Laboratories, Barcelona, Spain) with an average weight of 350 g were used. Rats were watered and fed ad libitum. The dose-response effect of riboflavin on blood glutamate lowering was determined in healthy animals. Three (3) doses of riboflavin were tested (i.v.), 1, 10 and 50 mg/Kg (weight of animal). As control group was used animals treated with saline (0.9% of NaCl, pH adjusted to 7.4), and as positive control group, animals treated with oxaloacetate 35 mg/Kg. […] A total of 6 animals per group were included in this study. […] With this purpose, dose of 35mg/Kg (average weight of animals: 350 g) of oxaloacetate (Ref 171263, Sigma) was prepared in a saline solution (0.9% of NaCl, pH adjusted to 7.4) at a final concentration of 12.25 mg/mL. Dose of 15 mg/Kg of oxaloacetate was prepared in saline solution (0.9% of NaCl, pH adjusted to 7.4) at a final concentration of 5.25 mg/mL. Dose of 1 mg/Kg of riboflavin (Ref. 4500, Sigma) initially dissolved in a minimal amount of dimethyl sulfoxide (DMSO) and then dissolved in a saline solution (0.9% of NaCl, pH adjusted to 7.4) at a final concentration of 0.35 mg/mL. […] Serum samples were collected in test tubes, centrifuged at 3000 r.p.m. for 7 min, serum was removed and immediately frozen and stored at −80 ° C. Serum glutamate concentration was determined by means of Glutamate Assay Kit (Abnova, Taipei City, Taiwan) following the manufacturer's technical specifications.

blood glutamate [3] = assay: Blood glutamate in ischemic (MCAO) animals; format: in vivo, rat; conditions: MCAO rats, 2 hours after administration
Description: Treatments were administered after artery reperfusion (45 min after occlusion). A total of 10 animals per group were included in this study. […] Infarct volume analysis were evaluated during the occlusion (30 min after occlusion), and 24h and 7 days after ischemia induction. Infarct volume determined at 30 min after artery occlusion (analyzed by diffusion weighted imaging, DWI) (Perez-Mato, M., et al., Cell Death Dis., 2014, 5:e992) was determined before treatments administration to confirm that all animals included in the study were submitted to the same ischemic insult. These values were used as basal infarct volume. […] With this purpose, dose of 35mg/Kg (average weight of animals: 350 g) of oxaloacetate (Ref 171263, Sigma) was prepared in a saline solution (0.9% of NaCl, pH adjusted to 7.4) at a final concentration of 12.25 mg/mL. […] Dose of 1 mg/Kg of riboflavin (Ref. 4500, Sigma) initially dissolved in a minimal amount of dimethyl sulfoxide (DMSO) and then dissolved in a saline solution (0.9% of NaCl, pH adjusted to 7.4) at a final concentration of 0.35 mg/mL. […] Serum samples were collected in test tubes, centrifuged at 3000 r.p.m. for 7 min, serum was removed and immediately frozen and stored at −80 ° C. Serum glutamate concentration was determined by means of Glutamate Assay Kit (Abnova, Taipei City, Taiwan) following the manufacturer's technical specifications. […]

MCAO rats = assay: Infarct volume by MRI in MCAO rats; format: in vivo, rat; conditions: riboflavin 1 mg/Kg, 24 h and 7 days after ischemia
Description: Four (4) experimental groups were performed: 1) a control group treated with saline (0.9% of NaCl, pH adjusted to 7.4), 2) a group treated with riboflavin 1 mg/Kg, 3) a group treated with riboflavin 1 mg/Kg in combination with dose of oxaloacetate a non-effective (15 mg/Kg) and 4) a positive control group treated with oxaloacetate 35 mg/Kg. […] Treatments were administered after artery reperfusion (45 min after occlusion). A total of 10 animals per group were included in this study. […] Infarct volume analysis were evaluated during the occlusion (30 min after occlusion), and 24h and 7 days after ischemia induction. Infarct volume determined at 30 min after artery occlusion (analyzed by diffusion weighted imaging, DWI) (Perez-Mato, M., et al., Cell Death Dis., 2014, 5:e992) was determined before treatments administration to confirm that all animals included in the study were submitted to the same ischemic insult. These values were used as basal infarct volume. […] Infarct volume, also referred herein as infarct size, was assessed by means of magnetic resonance imaging (MRI). […] Infarct volumes were determined from (ADC maps) and T2-weighted images by manually selecting areas of reduced ADC values or hyperintense T2 signal by a researcher blinded to the animal protocols.

## (−)-3-(3,4-Dihydroxyphenyl)-2-methyl-L-alanine sesquihydrate [CBG000361]
Recombinant human GOT
  Maximum of inhibition of glutamate formation in confirmatory assay (%): 38.5%
  IC50: 117 µM

## Doxycycline hyclate [CBG000814]
Recombinant human GOT
  Maximum of inhibition of glutamate formation in confirmatory assay (%): 32%
  IC50: 15.1 µM

## CN1CCc2cccc3c2[C@H]1Cc1ccc(O)c(O)c1-3.CN1CCc2cccc3c2[C@H]1Cc1ccc(O)c(O)c1-3.Cl.Cl.O [CBG000083, R-(−)-Apomorphine hydrochloride hemihydrate]
Recombinant human GOT
  Maximum of inhibition of glutamate formation in confirmatory assay (%): 56.5%
  IC50: 58.1 µM

## Cc1cc2nc3c(=O)[nH]c(=O)nc-3n(C[C@H](O)[C@H](O)[C@H](O)CO)c2cc1C [CBG000592, 7,8-dimethyl-10-[(2S,3S,4R)-2,3,4,5-tetrahydroxypentyl]benzo[g]pteridine-2,4-dione]
Recombinant human GOT
  Maximum of inhibition of glutamate formation in confirmatory assay (%): 63%
  pIC50: 5.72
  IC50: 1.96 µM
[1]
  pIC50: 4.97
Blood glutamate [2]; 30 min
  percentage of blood glutamate lowering (respect to basal levels): about 25%
Blood glutamate [2]; 2 h
  percentage of blood glutamate lowering (respect to basal levels): about 50%
Blood glutamate [2]; 4 h
  percentage of blood glutamate lowering (respect to basal levels): 60%
Blood glutamate [2]; 6 h
  percentage of blood glutamate lowering (respect to basal levels): 50%
Blood glutamate [3]; riboflavin 1 mg/Kg at reperfusion
  reduction of blood glutamate levels respect to basal levels: about 30%
MCAO rats
  lesion size (infarct volume) versus control: significant (p<0.001) decrease of lesion size

## O=C(O)CC(=O)C(=O)O [oxaloacetate, 3-carboxy-3-oxopropanoate]
Recombinant human GOT
  pIC50: 3.89
[1]
  pIC50: 5.74
Blood glutamate [2]; oxaloacetate 35 mg/Kg i.v., 2, 4 and 6 hours
  percentage of glutamate levels reduction: ≤ 40%
Blood glutamate [2]; oxaloacetate 35 mg/Kg i.v., 30 min
  reduction of blood glutamate levels: no effect
Blood glutamate [3]; oxaloacetate 35 mg/Kg at reperfusion
  reduction of blood glutamate levels respect to basal levels: about 30%

## CC(CCc1ccc(O)cc1)NCCc1ccc(O)c(O)c1 (centres unmarked) [CBG000332, Dobutamine hydrochloride]
Recombinant human GOT
  Maximum of inhibition of glutamate formation in confirmatory assay (%): 35.5%
  IC50: 81.7 µM

Source: patent publication US20180153897A1, “RIBOFLAVIN FOR THE TREATMENT OF ISCHEMIC STROKE AND/OR OTHER GLUTAMATE EXCITOTOXICITY-ASSOCIATED DISEASES” (priority 2015, published 2018)
